Laboratory results published in the supplement of paper PMC13380429.

Columns and labels:
Conditions in all cases: 72 h
Caco-2 [1] = test: cell viability relative to DMSO; higher = less toxic
Calu-3 [2] = test: as above
HepG2 [3] = test: as above
U2OS [4] = test: as above
Vero E6 [5] = test: as above
Caco-2 [6] = test: relative viability EC50 (midpoint between 100% and the lowest measured viability); higher = less toxic
Calu-3 [7] = test: as above
HepG2 [8] = test: as above
U2OS [9] = test: as above
Vero E6 [10] = test: as above
Caco-2 [11] = test: drug sensitivity score (DSS) for viability; higher = more toxic; extreme values may be limits of the assay
Calu-3 [12] = test: as above
HepG2 [13] = test: as above
U2OS [14] = test: as above
Vero E6 [15] = test: as above

Compound	cell viability (Caco-2 [1]; 1 nM) [%]	cell viability (Caco-2 [1]; 10 nM) [%]	cell viability (Caco-2 [1]; 100 nM) [%]	cell viability (Caco-2 [1]; 1000 nM) [%]	cell viability (Caco-2 [1]; 10000 nM) [%]	cell viability (Calu-3 [2]; 1 nM) [%]	cell viability (Calu-3 [2]; 10 nM) [%]	cell viability (Calu-3 [2]; 100 nM) [%]	cell viability (Calu-3 [2]; 1000 nM) [%]	cell viability (Calu-3 [2]; 10000 nM) [%]	cell viability (HepG2 [3]; 1 nM) [%]	cell viability (HepG2 [3]; 10 nM) [%]	cell viability (HepG2 [3]; 100 nM) [%]	cell viability (HepG2 [3]; 1000 nM) [%]	cell viability (HepG2 [3]; 10000 nM) [%]	cell viability (U2OS [4]; 1 nM) [%]	cell viability (U2OS [4]; 10 nM) [%]	cell viability (U2OS [4]; 100 nM) [%]	cell viability (U2OS [4]; 1000 nM) [%]	cell viability (U2OS [4]; 10000 nM) [%]	cell viability (Vero E6 [5]; 1 nM) [%]	cell viability (Vero E6 [5]; 10 nM) [%]	cell viability (Vero E6 [5]; 100 nM) [%]	cell viability (Vero E6 [5]; 1000 nM) [%]	cell viability (Vero E6 [5]; 10000 nM) [%]	relative viability EC50 (Caco-2 [6]) [µM]	relative viability EC50 (Calu-3 [7]) [µM]	relative viability EC50 (HepG2 [8]) [µM]	relative viability EC50 (U2OS [9]) [µM]	relative viability EC50 (Vero E6 [10]) [µM]	drug sensitivity score (Caco-2 [11])	drug sensitivity score (Calu-3 [12])	drug sensitivity score (HepG2 [13])	drug sensitivity score (U2OS [14])	drug sensitivity score (Vero E6 [15])
CCOC(=O)Nc1ccc(NCc2ccc(F)cc2)cc1N [Retigabine]	100	102	104	96.8	106	91.8	88.5	98.4	103	98.3	97.6	106	100	102	105	102	97.4	104	97	98	89.5	99.1	96.1	93.5	111	> 10	> 10	> 10	> 10	> 10	0	0	0	0	0
COc1cc(Cc2cnc(N)nc2N)c(C(C)C)cc1OC [Ro-3]	94.9	90.5	97.3	101	102	98.1	87.8	98	101	103	99.2	92.3	93.5	101	103	97.8	99.7	95	102	102	90.6	95.7	96.5	94.9	103	> 10	> 10	> 10	> 10	> 10	0	0	0	0	0
O=C(O)c1ccccc1Nc1cccc(OCc2ccc3ccccc3n2)c1 [SR-2640]	105	103	107	96.8	91.7	97.6	94.6	103	98.2	98.4	87.9	96.3	96.9	101	105	105	98.1	103	99.2	101	92	98.9	92.9	95	86.9	> 10	> 10	> 10	> 10	> 10	0	0	0	0	0
COc1cc(NC(=O)c2cccc(-n3cc(NC(=O)Nc4cccc(C)c4)cn3)c2)cc(OC)c1OC [SR-3576]	104	105	101	85.2	87.7	91.1	93.9	93.4	93.1	81	98.3	99.4	94.1	95.3	99.4	100	102	100	99.6	91.1	101	102	97.2	96.6	95.9	> 10	> 10	> 10	> 10	> 10	1.3	0.6	0	0	0
Cc1sc(C)c2c1CCC=C2c1c[nH]cn1 [TC-G-1000]	106	93.3	100	99.2	94.6	102	97.3	102	97.2	102	111	108	111	97	104	101	96.8	95.6	102	97	103	96.4	100	99.9	96.7	> 10	> 10	> 10	> 10	> 10	0	0	0	0	0
N#Cc1cnc2cnc(NCc3cccnc3)cc2c1Nc1ccc(F)c(Cl)c1 [TC-S-7006]	93.3	99	91.1	88.3	75.6	96.6	96.8	96.9	91.8	89	102	93	107	91.2	50	96.3	106	96.1	96.8	85.2	97.2	94.1	94	85.8	95.4	> 10	> 10	1.85	> 10	> 10	1.9	0	4.1	0.4	0
Nc1nccc(/C=C/c2ccccc2)n1 [TCN238]	89.6	98	89.2	100	83.2	98.7	97.9	99.4	102	103	110	92.9	112	97.3	105	96	99.9	97.6	103	97.5	104	98.6	101	97.7	103	> 10	> 10	> 10	> 10	> 10	0.4	0	0	0	0
Cn1c2cc([S+](C)[O-])sc2c2cnn(Cc3cccc(N)c3)c(=O)c21 (stereo not given) [TEPP-46]	98.7	98.3	92.7	98.1	89	104	97.6	96.7	94.7	94.7	119	103	111	98.5	102	98.3	97.1	97.8	100	98.7	103	97.4	106	96.3	91.9	> 10	> 10	> 10	> 10	> 10	0	0	0	0	0
CN(C)C/C=C/C(=O)Nc1ccc(C(=O)Nc2cccc(Nc3ncc(Cl)c(-c4c[nH]c5ccccc45)n3)c2)cc1 [THZ1]	95.6	104	88.9	36.9	37	96.1	97	71.8	39.6	40.7	108	87.2	10	5.4	4.8	97	102	58.2	6.2	4.9	103	101	99.4	44.4	11.4	0.185	0.107	0.0248	0.11	0.811	13.5	14.4	30.2	22.6	11.5
COc1cc2c(NC3CCN(C)CC3)nc(N3CCCN(C)CC3)nc2cc1OCCOCCN(C)C [UNC0321]	105	94	102	102	100	89.5	107	99	99.2	97	99.9	107	105	102	102	100	100	98.3	102	97.6	99.7	104	104	97	96.9	> 10	> 10	> 10	> 10	> 10	0	0	0	0	0
CC(C)(C)C#Cc1cc(N(C(=O)[C@H]2CC[C@H](C)CC2)[C@H]2CC[C@@H](O)CC2)c(C(=O)O)s1 [VX-222]	103	114	102	99.8	101	92.5	94.9	99.2	99.3	104	98.7	101	91.7	96.2	101	105	106	98.2	105	97.6	104	96.1	106	99.8	102	> 10	> 10	> 10	> 10	> 10	0	0	0	0	0
CC[C@]12C=CCN3CC[C@@]4(c5cc([C@@]6(C(=O)OC)C[C@@H]7C[C@@H](C(C)(F)F)CN(Cc8c6[nH]c6ccccc86)C7)c(OC)cc5N(C)[C@H]4[C@@](O)(C(=O)OC)[C@@H]1OC(C)=O)[C@@H]32 [Vinflunine Ditartrate]	88.1	104	77.4	55.2	41.2	108	101	90.2	69.3	45.9	107	95.1	61.2	32.8	34.3	101	98.1	87.5	48.6	23.1	102	99.5	103	64.1	24.3	0.213	0.655	0.0789	0.493	1.04	10.9	6.8	17	11.3	8.8
COc1ccc(N(C(=O)Oc2c(C)cccc2C)c2ccnc(Nc3ccc(N4CCN(C)CC4)cc3)n2)c(OC)c1 [WH-4-023]	101	89.4	102	114	103	93.3	104	95.8	104	89.8	92.7	91.9	93.2	100	101	101	96.8	98.1	107	99.8	95.4	97.4	96.7	93.7	84.8	> 10	> 10	> 10	> 10	> 10	0	0	0	0	0.2
CCOc1ccc(S(=O)(=O)O)c2cccnc12 [actinoquinol]	91.1	78	87.3	102	95.1	99.4	99.4	99	99.8	99.1	91	101	95.1	98.5	110	96.3	98.1	94	94.6	95.5	95.4	90.2	92.5	95.1	101	> 10	> 10	> 10	> 10	> 10	0	0	0	0	0
